# In patent US20050049295A1, “Process for the preparation of 5-(2-(4-(1,2-benzisothiazol-3-yl)-1piperazinyl) ethyl)-6-chloro-1, 3-dihydro-2h-indol-2-one hydrochloride (ziprasidone hydrochloride) and its intermediate” (DR. REDDY'S LABORATORIES LIMITED, priority 2003, published 2005):
# Key:
# Assay type in all cases: physicochemical
# [1] = Crystal size distribution / mean particle size D[4,3] (Malvern)
# Protocol: Ziprasidone hydrochloride (3 Kg) in formic acid (4.5 L) was heated to 60-65° C. for clear dissolution. The solution was filtered to remove any solid particles and the filtrate was cooled to 50-55° C. Ziprasidone hydrochloride (7.5 gm) as seed compound was added to the cooled filtrate. After stirred for 2 hr at 50-55° C., the resulting solution was cooled slowly to 25-35° C. over 1 to 1.5 hour. Ethyl acetate (13.5 L) was added slowly at 25-35° C. over 2 hrs. The resulting mass was stirred for 30-45 min at 25-35° C. The compound was filtered under nitrogen atmosphere. The filtered wet compound was added to acetic acid (10 L) at 25-35° C. under nitrogen atmosphere, and the resulting mixture was stirred for 30-45 min at 25-35° C. The compound was filtered under nitrogen atmosphere, washed with ethyl acetate (10 L), and then dried the compound at 60° C. under reduced pressure for 3-4 hrs and then at 110-120° C. to get the Ziprasidone hydrochloride (2.2 Kg). The product purity by HPLC was analyzed as 99.8%. The crystal size distribution as measured by Malvern was: D10<18.75 micron, D50=114.82 micron, […] and the mean particle size or D[4,3]=123.8 micron.
# [2] = Stability study with improved packing (inert atmosphere), 40° C. and 75% relative humidity; details: 40° C./75% RH
# Source text: (§1) Ziprasidone hydrochloride prepared by the present invention can be packed with a specific process to prevent from hydrating or to improve stability during the storage or transporting of ziprasidone hydrochloride products. This can be achieved by storing the active substance in inert atmosphere, which is technologically and economically simple. The active substance Ziprasidone HCl is stored in polythene bag or containers. The inert atmosphere may be made by nitrogen or argon or mixture thereof. Silica gel or desiccant in air permeable bag may be used optionally along with inert gas in the polythene bag or container.
# (§2) Stability study with improved packing (inert atmosphere):
# Initial and up to two-month stability profile for the hygroscopic active substance Ziprasidone HCl is shown below:
# The stability studies were carried out at 40° C. and 75% relative humidity condition.
# [3] = X-ray powder diffractogram of initial and two-month stability samples; details: Cu K alpha-1 radiation
# Protocol: X-Ray diffractograms of active substance Ziprasidone HCl (Initial and after two month sample) were recorded on Bruker Axe, DS Advance Powder X-ray Diffractometer with Cu K alpha-1 Radiation source. The characteristic X-ray diffractogram of Ziprasidone hydrochloride was found similar.
# [4] = Stability study with improved packing (inert atmosphere), 25° C. and 60% relative humidity; details: 25° C./60% RH
# Source text: as §1, §2
# The stability studies were also carried out at 25° C. and 60% relative humidity condition.
# [5] = Stability study with normal packing (without inert atmosphere), 40° C. and 75% relative humidity; details: 40° C./75% RH
# Protocol: Stability study with normal packing (without inert atmosphere): Initial and up to two-month stability profile with normal packing was carried out at 40° C. and 75% relative humidity conditions as follow: […]
# [6] = Example 15, crystal size distribution by Malvern
smiles,measurement,setting,value
"Cl.O=C1Cc2cc(CCN3CCN(c4nsc5ccccc45)CC3)c(Cl)cc2N1 [Ziprasidone hydrochloride, 5-(2-(4-(1,2-benzisothiazol-3-yl)-1-piperazinyl)ethyl)-6-chloro-1,3-dihydro-2H-indol-2-one hydrochloride]","mean particle size or D[4,3]",[1]; Example 12: reactive crystallization from base in formic acid with HCl in ethyl acetate,94.1 micron
same,"mean particle size or D[4,3]","[1]; Example 13: formic acid solvent, ethyl acetate anti-solvent, 30° C.",101.1 micron
same,"mean particle size or D[4,3]",[1]; Example 14: seeded cooling crystallization from formic acid,264.5 micron
same,D10,[1]; [6],< 18.75 micron
same,D50,[1]; [6],114.82 micron
same,D60,[1]; [6],< 236.5 micron
same,"mean particle size or D[4,3]","[1]; Example 15: seeded, formic acid / ethyl acetate anti-solvent, acetic acid slurry",123.8 micron
same,"mean particle size or D[4,3]","[1]; Example 16: reverse addition of formic acid solution into hot seeded ethyl acetate, 1.5 Kg",156.2 micron
same,"D[4,3]","[1]; Example 17: reverse addition of formic acid solution into hot seeded ethyl acetate, 20 Kg",132.2 micron
same,Assay,[2]; Initial,99.4% w/w
same,Moisture content,[2]; Initial,0.54% w/w
same,Total Impurity,[2]; Initial,0.19% w/w
same,Assay,[2]; One month,99.4% w/w
same,Moisture content,[2]; One month,0.41% w/w
same,Total Impurity,[2]; One month,0.19% w/w
same,Assay,[2]; Two month,99.7% w/w
same,Moisture content,[2]; Two month,0.54% w/w
same,Total Impurity,[2]; Two month,0.20% w/w
same,"X-ray diffractogram, initial versus after two month sample",[3],similar
same,Assay,[4]; Initial,99.4% w/w
same,Moisture content,[4]; Initial,0.54% w/w
same,Total Impurity,[4]; Initial,0.19% w/w
same,Assay,[4]; One month,99.2% w/w
same,Moisture content,[4]; One month,0.38% w/w
same,Total Impurity,[4]; One month,0.18% w/w
same,Assay,[4]; Two month,99.3% w/w
same,Moisture content,[4]; Two month,0.48% w/w
same,Total Impurity,[4]; Two month,0.21% w/w
same,Moisture content,[5]; Initial,0.25% w/w
same,Moisture content,[5]; One month,3.45% w/w
same,Moisture content,[5]; Two month,4.83% w/w
